For one test, the target named is PLK4 (h) (Homo sapiens, UniProt O00444). In words: PLK-4 human kinase inhibition, scintillation proximity assay (SPA). The following applies: read-out: PLK4 pIC50 (converted). The class given is biochemical.
Another test deals with AuroraB (h) (Homo sapiens, UniProt Q96GD4). The test can be described thus: Aurora-B human kinase inhibition, SPA. The following applies: read-out: AuroraB pIC50 (converted). The class given is biochemical. The procedure, abridged: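 AuroraB (0.5 μg/ml) phosphorylates 3 μM biotin-peptide using 0.5 μM ATP spiked with 33P-ATP in Hepes pH 7.5 with 3 mM MgCl2 and MnCl2, for 60 min at room temperature. EDTA stop solution carries streptavidin scintillant beads, and the captured radiolabel is imaged.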
Chain of AuroraB (h) (Q96GD4 whole entry): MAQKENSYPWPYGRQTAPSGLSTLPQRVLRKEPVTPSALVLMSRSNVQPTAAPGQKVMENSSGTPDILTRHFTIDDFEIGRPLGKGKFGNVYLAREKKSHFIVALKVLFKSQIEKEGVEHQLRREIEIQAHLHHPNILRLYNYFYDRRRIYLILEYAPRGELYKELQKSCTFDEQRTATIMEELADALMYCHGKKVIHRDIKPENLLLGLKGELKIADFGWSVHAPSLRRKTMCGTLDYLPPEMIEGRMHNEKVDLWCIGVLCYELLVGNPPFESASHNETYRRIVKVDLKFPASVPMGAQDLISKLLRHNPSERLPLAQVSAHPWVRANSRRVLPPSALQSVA

In another test the target is GSK3β (h) (Homo sapiens, UniProt P49841). The test can be described thus: GSK-3β human kinase inhibition, SPA. The class given is biochemical. Conditions: read-out: GSK3b pIC50 (converted). The procedure, abridged:
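Radiometric: 33P-labelled peptide captured on streptavidin SPA beads after EDTA stop and imaged on Leadseeker. Reaction ran 1 h at RT, 1 μM cold ATP with 2 nM [γ-33P]ATP, 1 μM biotin-peptide substrate, human GSK3β 1 μg/ml, pH 7.4 Tris buffer.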

The target in the next test is CDK4/CyclinD1 (h) (Homo sapiens, UniProt P11802). The test can be described thus: CDK4/CyclinD1 human kinase inhibition, SPA with GST-pRb substrate. The following applies: read-out: CDK4 pIC50 (converted). The class given is biochemical. Summed up:
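Scintillation proximity format: after EDTA/Triton stop containing glutathione SPA beads, 33P incorporation was counted. The reaction ran 60 min at room temperature in Hepes pH 7.5 with NaF, MgCl2, DTT, using 2.5 μg/ml human CDK4/CyclinD1, 40 μg/ml GST-pRb substrate and 2 nM [γ-33P]ATP.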

The target of a further test is PLK1 T210D (h) (Homo sapiens, UniProt P53350, T210D). The test can be described thus: PLK1 human kinase inhibition, SPA. The test is classed as biochemical. Conditions: read-out: PLK1 pIC50 (converted). Summed up:
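Kinase incubated 40 min at room temperature with 0.1 μM ATP (2 nM [γ-33P]ATP tracer), 2 μM biotinylated peptide, pH 8.0 Hepes buffer with 2 mM MnCl2 and 1 mM DTT; enzyme at 0.125 ng/ml. Stopped with EDTA; 33P-peptide bound to streptavidin scintillant beads and imaged.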

The next test deals with PLK2 (h) (Homo sapiens, UniProt Q9NYY3). The test can be described thus: PLK2 human kinase inhibition, SPA. The class given is biochemical. Conditions: read-out: PLK2 pIC50 (converted). The procedure, abridged:
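33P incorporation into a biotinylated peptide (2 μM) was captured on streptavidin PVT beads and imaged on Leadseeker. Enzyme at 30 μg/ml, ATP 0.1 μM with 2 nM [γ-33P]ATP, Hepes pH 8.0 with MnCl2 and DTT. Incubation was 20 min at room temperature.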

A further test addresses PLK3 (h) (Homo sapiens, UniProt Q9H4B4). The test can be described thus: PLK3 human kinase inhibition, SPA. Conditions: read-out: PLK3 pIC50 (converted). The class given is biochemical. The procedure, abridged:
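Radiometric scintillation proximity format at pH 8.0 (Hepes, MnCl2, DTT). The 2 μM biotin-peptide substrate is phosphorylated by PLK3 (h) (30 μg/ml) using 0.1 μM ATP traced with 33P, for 20 min at room temperature. EDTA stop; phosphopeptide captured on streptavidin beads and imaged.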

A further test has as its system HCT-116. The test can be described thus: Cellular proliferation assay (Alamar blue), HCT-116. The class given is cell-based. The following applies: Homo sapiens, 10% FCS, 72 hours with compound, Alamar blue 4 h. Summed up: (§1)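 Alamar blue conversion, quantified fluorimetrically (544 nm/590 nm), gave viable cell number relative to untreated controls; dye time 4 h for HCT-116, 6 h for U87-MG, 24 h for A2780 and MDA-MB-231. Compound exposure lasted 72 h, after 24 h pre-seeding, with 10% FCS, 37 °C, 5% CO2.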
(In general: Resazurin is reduced to fluorescent resorufin, in cell work by metabolically active cells.)

The next test has as its system H1299. In words: Cellular proliferation assay (Alamar blue), H1299. The test is classed as cell-based. Conditions: Homo sapiens, NCI-H1299; 10% FCS; 72 hours with compound; Alamar blue 4 h. Summed up: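 This proliferation assay on NCI-H1299 cells used an initial 24-hour compound-free incubation after seeding, followed by 72 hours of compound treatment with 10% FCS serum at 37° C. and 5% (v/v) CO2. Viable cells were quantified by a 4 h Alamar blue incubation and fluorescent plate reading at 544 nm/590 nm, and effects were expressed relative to control cells.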

The subject of another test is U87-MG. The test can be described thus: Cellular proliferation assay (Alamar blue), U87-MG. The following applies: Homo sapiens, U-87 MG; 10% FCS; 72 hours with compound; Alamar blue 6 h; read-out: U87-MG (cellular proliferation assay, Table 4) (converted). The test is classed as cell-based. Summed up: as §1
A further test concerns A2780. The test can be described thus: Cellular proliferation assay (Alamar blue), A2780. The test is classed as cell-based. The following applies: Homo sapiens, 10% FCS, 72 hours with compound, Alamar blue 24 h, read-out: A2780 (cellular proliferation assay, Table 4) (converted). The procedure, abridged: as §1
The test system of a further test is MDA-MB-231. In words: Cellular proliferation assay (Alamar blue), MDA-MB-231. The following applies: Homo sapiens, 10% FCS, 72 hours with compound, Alamar blue 24 h, read-out: MDA/MB231 (cellular proliferation assay, Table 4) (converted). The test is classed as cell-based. Summed up: as §1
In the next test the target is CDK1/CyclinB (h) (Homo sapiens, UniProt P06493). In words: CDK1/CyclinB human kinase inhibition, Invitrogen's FRET assay (Z'lyte). The test is classed as biochemical. The following applies: read-out: CDK1 pIC50 (converted). The procedure, abridged: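 Read-out is the 460 nm/538 nm emission ratio (390 nm excitation) after a 60 min protease development step. Before that, 10 μM ATP and 2 μM Z'lyte Ser/Thr peptide 12 react 60 min at room temperature with 0.2 μg/ml human CDK1/CyclinB in Hepes pH 7.5 containing MgCl2, EGTA and Brij-35.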
Chain of CDK1/CyclinB (h) (P06493 whole entry): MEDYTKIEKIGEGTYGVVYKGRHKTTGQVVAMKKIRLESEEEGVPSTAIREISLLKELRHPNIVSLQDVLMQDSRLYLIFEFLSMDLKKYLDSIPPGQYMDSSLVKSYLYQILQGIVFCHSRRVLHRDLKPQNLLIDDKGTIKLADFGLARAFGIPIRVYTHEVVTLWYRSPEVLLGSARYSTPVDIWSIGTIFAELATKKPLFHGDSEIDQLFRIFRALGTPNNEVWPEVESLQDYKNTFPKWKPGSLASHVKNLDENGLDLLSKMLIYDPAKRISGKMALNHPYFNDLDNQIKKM
Chain of CDK1/CyclinB (h) (P14635 whole entry partner): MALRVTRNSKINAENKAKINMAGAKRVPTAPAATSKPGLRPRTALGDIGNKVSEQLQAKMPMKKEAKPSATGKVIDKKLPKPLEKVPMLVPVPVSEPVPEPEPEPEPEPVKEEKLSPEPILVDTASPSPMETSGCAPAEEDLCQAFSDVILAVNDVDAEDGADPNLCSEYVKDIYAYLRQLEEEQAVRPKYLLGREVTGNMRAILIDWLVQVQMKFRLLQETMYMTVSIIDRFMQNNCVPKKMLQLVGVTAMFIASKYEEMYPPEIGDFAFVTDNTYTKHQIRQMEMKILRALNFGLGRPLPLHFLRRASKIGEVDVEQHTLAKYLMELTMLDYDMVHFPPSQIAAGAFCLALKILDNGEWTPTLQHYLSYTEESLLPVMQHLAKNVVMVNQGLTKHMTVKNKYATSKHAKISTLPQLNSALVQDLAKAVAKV

Chain of CDK4/CyclinD1 (h) (P11802 whole entry): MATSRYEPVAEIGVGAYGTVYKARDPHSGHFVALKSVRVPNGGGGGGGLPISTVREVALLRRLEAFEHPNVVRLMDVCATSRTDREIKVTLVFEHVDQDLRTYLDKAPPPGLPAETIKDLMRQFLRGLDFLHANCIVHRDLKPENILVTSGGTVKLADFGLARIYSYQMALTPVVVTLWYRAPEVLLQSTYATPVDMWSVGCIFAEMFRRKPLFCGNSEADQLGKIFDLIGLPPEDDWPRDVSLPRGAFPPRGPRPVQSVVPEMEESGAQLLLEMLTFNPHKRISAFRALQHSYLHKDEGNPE
Chain of CDK4/CyclinD1 (h) (P24385 whole entry partner): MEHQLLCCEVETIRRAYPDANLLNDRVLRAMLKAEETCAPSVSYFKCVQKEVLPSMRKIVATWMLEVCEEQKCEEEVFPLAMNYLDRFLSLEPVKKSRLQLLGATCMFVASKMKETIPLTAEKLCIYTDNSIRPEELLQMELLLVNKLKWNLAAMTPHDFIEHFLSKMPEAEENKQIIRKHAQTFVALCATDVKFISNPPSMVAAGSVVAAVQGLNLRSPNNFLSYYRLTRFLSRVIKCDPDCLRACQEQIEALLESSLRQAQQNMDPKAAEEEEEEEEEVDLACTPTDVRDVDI
Chain of PLK3 (h) (Q9H4B4 whole entry): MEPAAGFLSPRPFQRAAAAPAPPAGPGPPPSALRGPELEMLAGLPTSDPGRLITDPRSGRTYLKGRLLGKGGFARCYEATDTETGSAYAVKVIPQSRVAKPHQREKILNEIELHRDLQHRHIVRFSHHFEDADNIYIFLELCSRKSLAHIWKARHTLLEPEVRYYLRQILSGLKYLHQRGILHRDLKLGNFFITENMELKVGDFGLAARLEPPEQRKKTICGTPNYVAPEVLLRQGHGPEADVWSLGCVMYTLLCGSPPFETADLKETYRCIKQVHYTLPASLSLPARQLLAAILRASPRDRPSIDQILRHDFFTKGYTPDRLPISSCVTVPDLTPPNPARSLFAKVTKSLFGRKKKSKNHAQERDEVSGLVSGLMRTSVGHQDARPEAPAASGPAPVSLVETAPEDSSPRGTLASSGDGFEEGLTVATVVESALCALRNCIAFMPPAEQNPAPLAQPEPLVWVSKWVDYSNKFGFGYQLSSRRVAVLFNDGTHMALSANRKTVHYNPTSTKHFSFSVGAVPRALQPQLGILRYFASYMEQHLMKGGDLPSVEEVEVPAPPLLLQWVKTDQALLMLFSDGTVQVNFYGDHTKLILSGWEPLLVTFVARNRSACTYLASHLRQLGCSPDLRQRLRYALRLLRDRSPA
Chain of GSK3β (h) (P49841 whole entry): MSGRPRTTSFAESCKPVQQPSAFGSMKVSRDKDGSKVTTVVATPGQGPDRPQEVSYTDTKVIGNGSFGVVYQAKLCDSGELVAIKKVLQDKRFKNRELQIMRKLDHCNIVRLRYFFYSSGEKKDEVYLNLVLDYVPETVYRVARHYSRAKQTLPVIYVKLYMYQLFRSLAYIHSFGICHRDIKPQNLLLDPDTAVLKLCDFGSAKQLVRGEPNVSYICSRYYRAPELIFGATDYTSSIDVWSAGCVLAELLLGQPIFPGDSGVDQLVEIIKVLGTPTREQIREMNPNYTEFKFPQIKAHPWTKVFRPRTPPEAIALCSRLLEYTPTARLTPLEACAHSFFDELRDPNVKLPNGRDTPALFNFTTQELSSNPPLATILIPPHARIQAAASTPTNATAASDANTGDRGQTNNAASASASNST
Chain of PLK2 (h) (Q9NYY3 whole entry): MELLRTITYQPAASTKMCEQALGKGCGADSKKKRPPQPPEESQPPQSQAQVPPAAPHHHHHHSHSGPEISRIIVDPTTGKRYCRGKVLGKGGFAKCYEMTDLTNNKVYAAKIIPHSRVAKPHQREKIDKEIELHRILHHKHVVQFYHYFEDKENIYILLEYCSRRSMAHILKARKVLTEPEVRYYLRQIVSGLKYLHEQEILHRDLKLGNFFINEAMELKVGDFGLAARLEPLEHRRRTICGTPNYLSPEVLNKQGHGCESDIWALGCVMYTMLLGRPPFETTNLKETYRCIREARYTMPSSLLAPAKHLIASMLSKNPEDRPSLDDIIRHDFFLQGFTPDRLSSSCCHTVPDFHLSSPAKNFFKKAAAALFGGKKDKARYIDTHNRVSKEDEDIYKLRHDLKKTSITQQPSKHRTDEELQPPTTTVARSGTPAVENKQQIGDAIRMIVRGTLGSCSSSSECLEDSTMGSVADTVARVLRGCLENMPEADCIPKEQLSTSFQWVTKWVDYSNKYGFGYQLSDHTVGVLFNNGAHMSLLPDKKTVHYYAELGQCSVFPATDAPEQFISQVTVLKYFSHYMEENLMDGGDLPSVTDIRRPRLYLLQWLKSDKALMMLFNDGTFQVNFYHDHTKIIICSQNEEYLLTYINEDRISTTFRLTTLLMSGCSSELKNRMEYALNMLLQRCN
Chain of PLK1 T210D (h) (P53350 whole entry T210D): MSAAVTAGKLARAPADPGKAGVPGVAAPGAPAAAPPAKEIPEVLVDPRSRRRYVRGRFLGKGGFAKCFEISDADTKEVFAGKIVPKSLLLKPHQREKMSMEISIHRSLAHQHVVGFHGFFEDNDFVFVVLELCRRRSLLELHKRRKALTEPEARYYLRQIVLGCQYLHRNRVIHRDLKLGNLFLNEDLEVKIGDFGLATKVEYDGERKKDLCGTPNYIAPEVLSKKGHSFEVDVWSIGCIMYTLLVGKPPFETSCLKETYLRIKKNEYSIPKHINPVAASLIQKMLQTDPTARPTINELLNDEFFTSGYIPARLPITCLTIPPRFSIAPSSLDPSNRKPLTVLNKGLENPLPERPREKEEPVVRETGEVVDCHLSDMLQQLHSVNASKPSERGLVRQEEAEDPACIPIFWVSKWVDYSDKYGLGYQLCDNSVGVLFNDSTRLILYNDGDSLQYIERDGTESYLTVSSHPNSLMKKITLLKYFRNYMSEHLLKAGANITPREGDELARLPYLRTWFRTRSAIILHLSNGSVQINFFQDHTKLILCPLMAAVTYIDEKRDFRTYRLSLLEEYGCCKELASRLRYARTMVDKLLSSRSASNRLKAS
Chain of PLK4 (h) (O00444 whole entry): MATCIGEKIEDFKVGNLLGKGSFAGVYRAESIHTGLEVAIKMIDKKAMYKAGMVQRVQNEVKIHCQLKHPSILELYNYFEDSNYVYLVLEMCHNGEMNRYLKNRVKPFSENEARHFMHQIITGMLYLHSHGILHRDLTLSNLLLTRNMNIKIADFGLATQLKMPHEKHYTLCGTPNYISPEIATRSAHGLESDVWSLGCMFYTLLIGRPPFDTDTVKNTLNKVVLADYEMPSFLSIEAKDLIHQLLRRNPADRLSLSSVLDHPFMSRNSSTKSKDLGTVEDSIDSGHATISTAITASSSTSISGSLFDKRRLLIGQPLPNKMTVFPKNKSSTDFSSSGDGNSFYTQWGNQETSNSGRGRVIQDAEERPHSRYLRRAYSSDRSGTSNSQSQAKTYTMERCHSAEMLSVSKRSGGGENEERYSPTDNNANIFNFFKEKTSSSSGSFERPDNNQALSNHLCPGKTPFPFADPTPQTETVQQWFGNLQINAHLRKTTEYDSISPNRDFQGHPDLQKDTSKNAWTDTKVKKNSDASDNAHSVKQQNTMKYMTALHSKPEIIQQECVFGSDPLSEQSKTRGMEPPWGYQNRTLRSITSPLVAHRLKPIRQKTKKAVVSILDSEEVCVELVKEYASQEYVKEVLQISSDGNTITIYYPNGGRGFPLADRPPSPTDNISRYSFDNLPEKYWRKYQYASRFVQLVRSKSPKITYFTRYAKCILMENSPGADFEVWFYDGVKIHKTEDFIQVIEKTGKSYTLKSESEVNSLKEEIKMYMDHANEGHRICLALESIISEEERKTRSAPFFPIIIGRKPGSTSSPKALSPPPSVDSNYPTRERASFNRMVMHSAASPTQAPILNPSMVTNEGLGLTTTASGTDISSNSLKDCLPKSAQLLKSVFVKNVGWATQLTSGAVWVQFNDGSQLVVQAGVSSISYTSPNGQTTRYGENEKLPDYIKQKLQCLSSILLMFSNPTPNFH

Consider `O=C1NCc2cccc(c2)-c2ccnc(n2)Nc2cccc(c2)CN2CCC[C@@H]12` [Compound 53], for which the IC50 at PLK4 (h) was above 10 µM; on AuroraB (h) it was above 10 µM; on GSK3β (h) it was 0.126 µM; at CDK4/CyclinD1 (h), above 10 µM; on PLK1 T210D (h) it was above 10 µM; at PLK2 (h), above 10 µM. Moreover, the IC50 on PLK3 (h) was above 10 µM; with HCT-116 it was 8.71 µM; with H1299 it was above 10 µM; in the test with U87-MG, 6.61 µM; with A2780 it was above 10 µM; in the test on MDA-MB-231 it was above 10 µM.
Regarding `CN1CCN(Cc2cc3cc(c2)Nc2nccc(n2)-c2cccc(c2)CNC(=O)[C@@H]2CCCN2C3)CC1` [Compound 28], the IC50 is above 10 µM at AuroraB (h); 0.112 µM at GSK3β (h); 0.603 µM on CDK1/CyclinB (h); 1.66 µM on CDK4/CyclinD1 (h); above 10 µM on PLK1 T210D (h); above 10 µM on PLK2 (h). For the same compound, the IC50 was above 10 µM at PLK3 (h); 0.363 µM in the test on HCT-116; 2.24 µM with H1299; 0.158 µM with U87-MG; 0.55 µM with A2780; 1.62 µM in the test with MDA-MB-231.

The record behind these values is patent US8609836B2, “4-aryl-2-anilino-pyrimidines” (Janssen Pharmaceutica NV, priority 2008, dated 2013).
